Measured values from US11021507B2, “Myricetin derivative and preparing method thereof, and application of same for treating colitis, preventing and treating colitis tumorigenesis, and treating colorectal cancer” (MARINE BIOMEDICAL RESEARCH INSTITUTE OF QINGDAO CO., LTD., priority 2016, dated 2021).

How the values were obtained:
[1] = Water solubility test (equilibrium solubility in pure water, LC/MS); assay type: physicochemical; details: 37° C.
Method: Water solubility test for myricetin derivative M5, M6 and M10
Instrument: Waters Alliance e2695 LC/MS; chromatographic column: Waters×Bridge C18 4.6×150 mm.
Appropriate amount of said myricetin derivative was weighed and dissolved in methanol to prepare a solution of 1 mg/ml respectively, which was diluted with methanol to different concentrations of working solution as standard samples for testing.
2. 1 mL of ultrapure water was added into a 1.5 ml transparent EP tube. Appropriate amount of said myricetin derivative was each added into a transparent EP tube, followed by vortex mixation and ultrasonication till the drug was no longer dissolved (the solution appeared cloudy or had suspended particles). The mixture was then placed in an incubating oscillator for shaking at the temperature of (37±1) ° C., 100 r/min, for 24 hours, to achieve a sufficient solubility balance. 24 hours later, the saturated solution was taken out for centrifugation at 3000 r/min for 15 min. The supernatant was immediately filtered through a 0.45 μm microporous membrane, and the initial part of the filtrate was discarded. Samples were added for chromatography. The peak area was measured and the equilibrium solubility of each compound in pure water was calculated using a standard curve.

[2] = tested on: azomethane (AOM)/dextran sulfate sodium (DSS)-induced chronic ulcerative colitis and inflammation-associated tumorigenesis; assay: AOM/DSS-induced chronic ulcerative colitis and inflammation-associated tumorigenesis in mice; assay type: in vivo, C57BL/6 mice
Description: Determination of therapeutic effect of myricetin derivative M10 on azomethane (AOM)/dextran sulfate sodium (DSS)-induced chronic ulcerative colitis and inflammation-associated tumorigenesis.
Compound tested and control drugs: myricetin derivative M10, control compound myricetin, aspirin (Sigma).
Experimental animals: C57BL/6 mice, 20 to 22 g, both male and female, SPF grade provided by Beijing Vital Lihua Experimental Animal Company, and mice were fed with standard animal feed.
Animal models of AOM/DSS-induced chronic colitis and inflammation-associated tumorigenesis: 48 C57BL/6 mice were randomly divided into six groups with eight mice in each group, including model group, for which 0.5% CMC-Na was administered intragastrically every day; aspirin group, for which 100 mg/kg of aspirin (dissolved in 0.5% CMC-Na) was administered intragastrically; myricetin control group, for which 100 mg/kg of myricetin (dissolved in 0.5% CMCNa) was administered intragastrically; M10 high dose group, for which 100 mg/kg of M10 (dissolved in pure water) was administered intragastrically; M10 medium dose group, for which 50 mg/kg of M10 (dissolved in pure water) was administered intragastrically; M10 low dose group, for which 25 mg/kg of M10 (dissolved in pure water) was administered intragastrically.
Preparation of chronic ulcerative colitis mice model: said groups of mice were intraperitoneally injected with 10 mg/kg of azoxymethane (AOM) on day one. Purified drinking water containing 2% dextran sulfate sodium (DSS) was freshly made and provided on day one and on the next six consecutive days, the replaced by purified drinking water for the next seven consecutive days. The above procedure was then repeated for 3 more times.
M10-treated group: 200 mg of M10 was weighed and dissolved in 10 mL of 0.5% CMC-Na solution (20 mg/mL), and consecutively diluted 2 times and 5 times for future use. 0.2 mL of each prepared solutions was given intragastrically to mice (the body weight was assumed as 20 g per mouse), namely divided into high, medium or small dose groups. Myricetin control group: 200 mg of myricetin was weighed and dissolved in 10 mL of 0.5% CMC-Na. Aspirin-treated group: 200 mg of aspirin was weighed and dissolved in 10 mL of 0.5% CMC-Na. Administration method: The body weight of mice was measured daily, and drugs were administered at 0.01 mL/g (100 mg/kg) per day for 12 consecutive weeks. 4. Animal observation and treatment methods: weight, diet, diarrhea (or bloody stools) etc. were observed daily.
At the end of the experiment, mice were sacrificed. The colon and small intestine were dissected out for visual observation and pathological analysis. Pathological examination methods and evaluation criteria: the mice colons of each group were fixed with 10% formalin, followed by routine paraffin embedding, sectioning and HE staining. The developmental degree of colonic inflammation and colon cancer in each group of mice was evaluated under microscopic observation.

[3] = tested on: endoplasmic reticulum stress signaling molecules GRP78, ATF6, PelF-2a and IREa; assay: AOM/DSS-induced endoplasmic reticulum stress in mouse colon (FIG. 9); assay type: in vivo, C57BL/6 mice
Description: FIG. 9 illustrates the mechanism of M10 in inhibiting endoplasmic reticulum stress induced by AOM/DSS in Example 13;

[4] = tested on: signaling molecules ATG3, ATG5, ATG7, ATG12, and ATG1611; assay: Cellular autophagy caused by AOM/DSS-induced endoplasmic reticulum stress in colonic epithelial cells (FIG. 10); assay type: in vivo, C57BL/6 mice
Description: FIG. 10 illustrates the mechanism of M10 in inhibiting cellular autophagy and colonic epithelial cell proliferation and carcinogenesis caused by AOM/DSS-induced endoplasmic reticulum stress in Example 13;

KM mice = assay: Acute toxicity experiment, maximum tolerated dose in mice; assay type: in vivo
Method: Acute Toxicity Experiment on Myricetin Derivative M10, Testing Maximum Tolerated Dose in Mice.
Animal germ line: KM mice
The KM mice with quarantine conformity were selected for the experiment. 10 mice weighing 18 g-22 g each after fasting were randomly selected, labeled and housed in separate cages.
In accordance with the acute toxicity testing method in Healthy Food Inspection and Evaluation Technical Specifications (2003 edition), sample solutions were prepared and administered twice intragastrically within 24 hours with the maximum dose of 20 mL/kg. Mice were monitored 1, 4, 8, 24, 48, 72, 96, 120, 144, 168 and 336 hours respectively after drug administration, and the maximum tolerable dose in mice was calculated if no mouse died.

With `O=c1c(O[C@@H]2O[C@H](CO)[C@@H](O[C@@H]3O[C@H](CO)[C@H](O)[C@H](O)[C@H]3O)[C@H](O)[C@H]2O)c(-c2cc(O)c(O)c(O)c2)oc2cc(O)cc(O)c12` [M10] the “Solubility (in words)” value ([1]; 24 h, per Table 2) was “excellent solubility”, the solubility at 24 h ([1]; ultrapure water, thermodynamic from solid) was > 100 mg/mL and the “Pathological analysis of colon tissue (colon cancer)” value ([2]; 100 mg/kg aspirin or myricetin, M10 25-100 mg/kg, 12 weeks, FIG. 8) was “significant activity of preventing and treating colon cancer”. For the same compound, the “Symptoms of AOM/DSS-induced chronic colitis (body weight loss, loose stools, blood in stool)” value ([2]; M10 25, 50 and 100 mg/kg intragastrically, 12 weeks) was “significantly alleviated”, the “Number of colon tumor nodules” value ([2]; all doses (25, 50, 100 mg/kg), after 12 weeks, FIG. 6 and FIG. 7) was “significantly reduced” and the “Loss of body weight induced by AOM/DSS” value ([2]; intragastric, 12 weeks, week 10 to 12, FIG. 4) was “significantly prevented”. For the same compound, the “Swollen endoplasmic reticulum membrane, irregular fracture arrangement” value ([3]; FIG. 9A) was “significantly alleviated”, the “Activation of stress signaling molecules GRP78, ATF6, PelF-2a and IREa” value ([3]; FIG. 9B) was “significantly inhibited” and the “Autophagic vacuoles in colonic epithelial cells with mitochondrial swelling” value ([4]; FIG. 10A) was “significantly alleviated”. The “Activation of signaling molecules ATG3, ATG5, ATG7, ATG12 and ATG1611” value ([4]; FIG. 10B) was “significantly inhibited”, the “Maximum tolerable dose in mice” value (KM mice; administered twice intragastrically within 24 hours, 0.02 mL/g, 250 mg/mL, 14 days observation) was “more than 5 g/kg” and the “Toxicity during whole observation period” value (KM mice; fourteen days observation) was “no obvious toxicity”. For the same compound, the Death (KM mice; mouse, in vivo) was “No death”.
